Consider 4 compounds from patent US20040176321A1, “Compositions of benzoquinolizine carboxylic acid antibiotic drugs” (priority 2002, published 2004).

Series [1] can be described thus: Solubility study with β-cyclodextrin and hydroxypropyl β-cyclodextrin. The series is classed as physicochemical. The settings on record: ca. 24 hours, 27° C. As for the experimental part:
The flasks were kept ca. 24 hours on a mechanical shaker, maintained at 27° C. and 140 rpm. The solutions were filtered through 0.2 micron syringe filter. The filtrates were diluted appropriately and injected on HPLC. The amounts dissolved were determined by comparing the sample peak area with peak area of standard solution.

A short description of series [2]: Solubility at ambient temperature (in water). The series is classed as physicochemical.
Another series is described as follows: pKa value. The series is classed as physicochemical.
The subject of the next series is Wistar rats. The settings on record: rat, in vivo, iv. How it is done: Wistar rats of body weight range 90-100 gm were treated with i.v. administered above test compositions in doses specified in the table below for a period of 7 days to 28 days. The test doses were administered by injecting 0.5 ml-1.0 ml of test compositions via tail vein of each rat with the help of graduated 1 ml disposable syringe fitted with 26½ G needle. Each repeat dose was administered in 5 male and 5 female rats. Animals were monitored for the induction of phlebitis or its progression to complete venous blockade.

By solubility is commonly meant the concentration that dissolves in the medium under given conditions. A high value points to a readily soluble substance. Broadly, the pKa is the negative logarithm of the acid dissociation constant. Higher therefore signals a group that holds its proton tightly.

The structures appear in SMILES notation.

For the compound `CC1CCc2c(N3CCC(O)CC3)c(F)cc3c(=O)c(C(=O)O)cn1c23` (racemic) [Substance C, RS-(±)-9-fluoro-6,7-dihydro-8-(4-hydroxypiperidin-1-yl)-5-methyl-1-oxo-1H,5H-benzo[I,j]quinolizine-2-carboxylic acid], the “amount dissolved with HP-β-CD” value was 0.03 mg/mL in series [1] (HP-β-CD 0 mg/ml); 0.05 mg/mL in series [1] (HP-β-CD 2 mg/ml); 0.11 mg/mL in series [1] (HP-β-CD 5 mg/ml); 0.31 mg/mL in series [1] (HP-β-CD 10 mg/ml); 1.03 mg/mL in series [1] (HP-β-CD 50 mg/ml). The “amount dissolved with β-CD” value in series [1] (β-CD 0 mg/ml) amounted to 0.03 mg/mL; in series [1] (β-CD 5 mg/ml) it was 0.22 mg/mL; in series [1] (β-CD 10 mg/ml), 0.40 mg/mL.
For `C[C@H]1CCc2c(N3CCC(O)CC3)c(F)cc3c(=O)c(C(=O)O)cn1c23` [Substance A, S-(−)-9-fluoro-6,7-dihydro-8-(4-hydroxypiperidin-1-yl)-5-methyl-1-oxo-1H,5H-benzo[I,j]quinolizine-2-carboxylic acid], the “amount dissolved with HP-β-CD” value was 0.04 mg/mL in series [1] (HP-β-CD 0 mg/ml); 0.21 mg/mL in series [1] (HP-β-CD 2 mg/ml); 0.28 mg/mL in series [1] (HP-β-CD 5 mg/ml); 0.55 mg/mL in series [1] (HP-β-CD 10 mg/ml); 2.67 mg/mL in series [1] (HP-β-CD 50 mg/ml). In addition, the “amount dissolved with β-CD” value is 0.04 mg/mL in series [1] (β-CD 0 mg/ml), 0.12 mg/mL in series [1] (β-CD 2 mg/ml), 0.27 mg/mL in series [1] (β-CD 5 mg/ml) and 0.53 mg/mL in series [1] (β-CD 10 mg/ml). In series [2], this compound returned a solubility below 1500 µg/mL. This compound returned a pKa in the series “pKa value” of 6.8.
As to `C[C@H]1CCc2c(N3CCC(O)CC3)c(F)cc3c(=O)c(C(=O)O)cn1c23.N=C(N)NCCC[C@H](N)C(=O)O` [Substance B, S-(−)-9-fluoro-6,7-dihydro-8-(4-hydroxypiperidin-1-yl)-5-methyl-1-oxo-1H,5H-benzo[I,j]quinolizine-2-carboxylic acid arginine salt], the venous tolerability entry in the series with Wistar rats is on record as “superior venous tolerability”.
Regarding `C[C@@H]1CCc2c(N3CCC(O)CC3)c(F)cc3c(=O)c(C(=O)O)cn1c23` [Substance D, R-(+)-9-fluoro-6,7-dihydro-8-(4-hydroxypiperidin-1-yl)-5-methyl-1-oxo-1H,5H-benzo[I,j]quinolizine-2-carboxylic acid], the “amount dissolved with HP-β-CD” value was found to be 0.15 mg/mL in series [1] (HP-β-CD 0 mg/ml); 0.37 mg/mL in series [1] (HP-β-CD 2 mg/ml); 0.50 mg/mL in series [1] (HP-β-CD 5 mg/ml); 1.08 mg/mL in series [1] (HP-β-CD 10 mg/ml); 5.01 mg/mL in series [1] (HP-β-CD 50 mg/ml). The “amount dissolved with β-CD” value in series [1] (β-CD 0 mg/ml) came out at 0.15 mg/mL; in series [1] (β-CD 5 mg/ml), 0.71 mg/mL.
